≈ marks a conversion by molar mass, not a printed value. Like-named read-outs stand apart in the source and are kept apart here.
How the values were obtained:
[1] = system: E. coli (ATCC25922); assay: Broth microdilution assay, MIC; assay type: cell-based; conditions: Escherichia coli, ATCC25922, read-out: Minimum Inhibitory Concentration
[2] = system: P. aeruginosa (ATCC 29853); assay: Broth microdilution assay, MIC/MBC; assay type: cell-based; conditions: for ratio (MBC/MIC): P. aeruginosa (ATCC 29853); for fold more efficient than amoxicillin / bactericidal or bacteriostatic effect: P. aeruginosa; for fold more efficient than amoxicillin: from MICs; for bactericidal or bacteriostatic effect: MBC/MIC ≤ 4 = bactericidal; for MBC / MIC: Pseudomonas aeruginosa
[3] = system: S. aureus (ATCC 25923); assay: Broth microdilution assay, MIC; assay type: cell-based; conditions: Staphylococcus aureus, ATCC25923, read-out: Minimum Inhibitory Concentration
[4] = system: B. subtilis (ATCC 9372); assay: Broth microdilution assay, MIC; assay type: cell-based; conditions: Bacillus subtilis, ATCC9372, read-out: Minimum Inhibitory Concentration
[5] = system: C. albicans (ATCC 10231); assay: Broth microdilution assay, antifungal MIC/MFC; assay type: cell-based, Candida albicans; conditions: for ratio (MFC/MIC): C. albicans (ATCC 10231); for fungicidal or fungistatic behavior: C. albicans, MFC/MIC > 4 = fungistatic; for MFC / MIC: Candida albicans
[6] = system: M. tuberculosis (RCMB 010126); assay: Microplate alamar blue assay; assay type: cell-based, Mycobacterium tuberculosis; conditions: MABA
[7] = target: T1, M. tuberculosis DHFR enzyme (Mycobacterium tuberculosis, UniProt P9WNX1); assay: biochemical
T1 sequence (P9WNX1 1-161): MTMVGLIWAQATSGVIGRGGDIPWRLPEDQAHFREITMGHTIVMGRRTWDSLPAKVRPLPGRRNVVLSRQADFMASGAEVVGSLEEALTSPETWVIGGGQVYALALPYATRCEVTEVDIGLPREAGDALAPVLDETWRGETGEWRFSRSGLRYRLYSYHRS

[8] = ATCC29853, read-out: Minimum Inhibitory Concentration
[9] = ATCC10231, read-out: Minimum Inhibitory Concentration
[10] = Mycobacterium tuberculosis, RCMB010126, sensitive Mycobacterium tuberculosis (RCMB 010126)
[11] = sensitive Mycobacterium tuberculosis (RCMB 010126)

Structure (SMILES) | MIC [1] [µg/mL] | ratio (MBC/MIC) [2] | fold more efficient than amoxicillin [2] [fold] | bactericidal or bacteriostatic effect [2] | MBC ([2]; ATCC29853) [µg/mL] | MIC ([2]; ATCC29853) [µg/mL] | MIC [2, 8] [µg/mL] | MIC [3] [µg/mL] | MIC [4] [µg/mL] | ratio (MFC/MIC) [5] | fungicidal or fungistatic behavior [5] | MFC ([5]; ATCC10231) [µg/mL] | MIC ([5]; ATCC10231) [µg/mL] | MIC [5, 9] [µg/mL] | MIC [6, 10] [µg/mL] | MIC [6, 11] [µg/mL] | IC50 [7] [µM]
Brc1ccc(-c2csc(N3N=C(c4cccs4)CC3c3cccs3)n2)cc1 (centres unmarked) [4c, 1-(4-(4-Bromophenyl)thiazol-2-yl)-4,5-dihydro-3,5-di(thiophen-2-yl)-1H-pyrazole] | > 500 | 4 | ~16 | bactericidal | 125 (≈ 265 µM) | 31.2 (≈ 66.1 µM) | 31.2 (≈ 66.1 µM) | 62.5 (≈ 132 µM) | 125 (≈ 265 µM) | 8 | fungistatic | 31.2 (≈ 66.1 µM) | 3.9 (≈ 8.25 µM) | 3.9 (≈ 8.25 µM) | 0.12 to 1.95 (≈ 0.254 to 4.13 µM) | 0.12 (≈ 0.254 µM) | 4.21 ± 0.13
CCOC(=O)c1sc(N2N=C(c3cccs3)CC2c2cc(OC)ccc2OC)nc1C (centres unmarked) [5b, Ethyl 2-(4,5-dihydro-5-(2,5-dimethoxyphenyl)-3-(thiophen-2-yl)pyrazol-1-yl)-4-methylthiazole-5-carboxylate] | 125 (≈ 273 µM) | 2 | ~16 | bactericidal | 62.2 (≈ 136 µM) | 31.2 (≈ 68.3 µM) | 31.2 (≈ 68.3 µM) | 62.5 (≈ 137 µM) | 125 (≈ 273 µM) | 2 |  | 125 (≈ 273 µM) | 62.5 (≈ 137 µM) | 62.5 (≈ 137 µM) | 31.2 (≈ 68.3 µM) |  | 
O=C1CSC(N2N=C(c3cccs3)CC2c2cccs2)=N1 (centres unmarked) [6a, 2-(4,5-Dihydro-3,5-di(thiophen-2-yl)pyrazol-1-yl)thiazol-4(5H)-one] | 125 (≈ 375 µM) | 4 |  | bactericidal | 250 (≈ 750 µM) | 62.5 (≈ 187 µM) | 62.5 (≈ 187 µM) | 250 (≈ 750 µM) | 125 (≈ 375 µM) | 4 |  | 250 (≈ 750 µM) | 62.5 (≈ 187 µM) | 62.5 (≈ 187 µM) | 31.2 (≈ 93.7 µM) |  | 
COc1ccc(OC)c(C2CC(c3cccs3)=NN2C2=NC(=O)CS2)c1 (centres unmarked) [6b, 2-(4,5-Dihydro-5-(2,5-dimethoxyphenyl)-3-(thiophen-2-yl)pyrazol-1-yl)thiazol-4(5H)-one] | 125 (≈ 323 µM) | 4 |  | bactericidal | 15.6 (≈ 40.3 µM) | 3.9 (≈ 10.1 µM) | 3.9 (≈ 10.1 µM) | 62.5 (≈ 161 µM) | 125 (≈ 323 µM) | 4 |  | 15.6 (≈ 40.3 µM) | 3.9 (≈ 10.1 µM) | 3.9 (≈ 10.1 µM) | 0.12 to 1.95 (≈ 0.31 to 5.03 µM) | 0.12 (≈ 0.31 µM) | 5.7 ± 0.28
CC1SC(N2N=C(c3cccs3)CC2c2cccs2)=NC1=O (centres unmarked) [7a, 2-(4,5-Dihydro-3,5-di(thiophen-2-yl)pyrazol-1-yl)-5-methylthiazol-4(5H)-one] | 125 (≈ 360 µM) | >1 |  |  | > 500 | > 500 | > 500 | > 500 | 125 (≈ 360 µM) | 4 |  | 250 (≈ 719 µM) | 62.5 (≈ 180 µM) | 62.5 (≈ 180 µM) | 62.5 (≈ 180 µM) |  | 
COc1ccc(OC)c(C2CC(c3cccs3)=NN2C2=NC(=O)C(C)S2)c1 (centres unmarked) [7b, 2-(4,5-Dihydro-5-(2,5-dimethoxyphenyl)-3-(thiophen-2-yl)pyrazol-1-yl)-5-methylthiazol-4(5H)-one] | 125 (≈ 311 µM) | 2 |  | bactericidal | 250 (≈ 623 µM) | 125 (≈ 311 µM) | 125 (≈ 311 µM) | 250 (≈ 623 µM) | 125 (≈ 311 µM) | 8 | fungistatic | 500 (≈ 1250 µM) | 62.5 (≈ 156 µM) | 62.5 (≈ 156 µM) | 62.5 (≈ 156 µM) |  | 
COc1ccc(C=C2SC(N3N=C(c4cccs4)CC3c3cccs3)=NC2=O)cc1 (centres unmarked) [8a, 5-(4-Methoxybenzylidene)-2-(4,5-dihydro-3,5-di(thiophen-2-yl)pyrazol-1-yl)thiazol-4(5H)-one] | 125 (≈ 277 µM) | 8 | ~16 |  | 250 (≈ 554 µM) | 31.2 (≈ 69.2 µM) | 31.2 (≈ 69.2 µM) | 250 (≈ 554 µM) | 125 (≈ 277 µM) | 2 |  | 125 (≈ 277 µM) | 62.5 (≈ 138 µM) | 62.5 (≈ 138 µM) | 31.2 (≈ 69.2 µM) |  | 
COc1ccc(C=C2SC(N3N=C(c4cccs4)CC3c3cc(OC)ccc3OC)=NC2=O)cc1 (centres unmarked) [8b, 5-(4-Methoxybenzylidene)-2-(4,5-dihydro-5-(2,5-dimethoxyphenyl)-3-(thiophen-2-yl)pyrazol-1-yl)thiazol-4(5H)-one] | > 500 | 8 |  |  | 500 (≈ 989 µM) | 62.2 (≈ 123 µM) | 62.2 (≈ 123 µM) | 62.5 (≈ 124 µM) | 62.5 (≈ 124 µM) | 4 |  | 125 (≈ 247 µM) | 31.2 (≈ 61.8 µM) | 31.2 (≈ 61.8 µM) |  |  | 18.5 ± 0.61
COc1ccc(OC)c(C=C2SC(N3N=C(c4cccs4)CC3c3cccs3)=NC2=O)c1 (centres unmarked) [8c, 5-(2,5-Dimethoxybenzylidene)-2-(4,5-dihydro-3,5-di(thiophen-2-yl)pyrazol-1-yl)thiazol-4(5H)-one] | 125 (≈ 260 µM) | 8 | ~16 |  | 250 (≈ 519 µM) | 31.2 (≈ 64.9 µM) | 31.2 (≈ 64.9 µM) | 62.5 (≈ 130 µM) | 125 (≈ 260 µM) | 2 |  | 62.2 (≈ 129 µM) | 31.2 (≈ 64.9 µM) | 31.2 (≈ 64.9 µM) | 7.81 (≈ 16.2 µM) |  | 
COc1ccc(OC)c(C=C2SC(N3N=C(c4cccs4)CC3c3cc(OC)ccc3OC)=NC2=O)c1 (centres unmarked) [8d, 5-(2,5-Dimethoxybenzylidene)-2-(4,5-dihydro-5-(2,5-dimethoxyphenyl)-3-(thiophen-2-yl)pyrazol-1-yl)thiazol-4(5H)-one] | 125 (≈ 233 µM) | 2 |  | bactericidal | 125 (≈ 233 µM) | 62.2 (≈ 116 µM) | 62.2 (≈ 116 µM) | 62.5 (≈ 117 µM) | 125 (≈ 233 µM) | 2 |  | 125 (≈ 233 µM) | 62.5 (≈ 117 µM) | 62.5 (≈ 117 µM) | 31.2 (≈ 58.3 µM) |  | 
O=C1N=C(N2N=C(c3cccs3)CC2c2cccs2)SC1=C1C(=O)Nc2ccccc21 (centres unmarked) [9a, 3-(2-(4,5-Dihydro-3,5-di(thiophen-2-yl)pyrazol-1-yl)-4-oxothiazol-5(4H)-ylidene)indolin-2-one] | 125 (≈ 270 µM) | 2 | ~16 | bactericidal | 62.2 (≈ 135 µM) | 31.2 (≈ 67.6 µM) | 31.2 (≈ 67.6 µM) | 62.5 (≈ 135 µM) | 125 (≈ 270 µM) | 2 |  | 250 (≈ 540 µM) | 125 (≈ 270 µM) | 125 (≈ 270 µM) | 15.6 (≈ 33.7 µM) |  | 
COc1ccc(OC)c(C2CC(c3cccs3)=NN2C2=NC(=O)C(=C3C(=O)Nc4ccccc43)S2)c1 (centres unmarked) [9b, 3-(2-(4,5-Dihydro-5-(2,5-dimethoxyphenyl)-3-(thiophen-2-yl)pyrazol-1-yl)-4-oxothiazol-5(4H)-ylidene)indolin-2-one] | 125 (≈ 242 µM) | 2 |  | bactericidal | 125 (≈ 242 µM) | 62.2 (≈ 120 µM) | 62.2 (≈ 120 µM) | 62.5 (≈ 121 µM) | 125 (≈ 242 µM) | 16 | fungistatic | 500 (≈ 968 µM) | 31.2 (≈ 60.5 µM) | 31.2 (≈ 60.5 µM) |  |  | 22.7 ± 0.55
O=C1CCSC(N2N=C(c3cccs3)CC2c2cccs2)=N1 (centres unmarked) [10a, 5,6-Dihydro-2-(4,5-dihydro-3,5-di(thiophen-2-yl)pyrazol-1-yl)-1,3-thiazin-4-one] | 125 (≈ 360 µM) | 4 | ~16 | bactericidal | 125 (≈ 360 µM) | 31.2 (≈ 89.9 µM) | 31.2 (≈ 89.9 µM) | 125 (≈ 360 µM) | 62.5 (≈ 180 µM) | 4 |  | 250 (≈ 719 µM) | 62.5 (≈ 180 µM) | 62.5 (≈ 180 µM) | 31.2 (≈ 89.9 µM) |  | 
COc1ccc(OC)c(C2CC(c3cccs3)=NN2C2=NC(=O)CCS2)c1 (centres unmarked) [10b, 5,6-Dihydro-2-(4,5-dihydro-5-(2,5-dimethoxyphenyl)-3-(thiophen-2-yl)pyrazol-1-yl)-1,3-thiazin-4-one] | 125 (≈ 311 µM) | 4 |  | bactericidal | 250 (≈ 623 µM) | 62.2 (≈ 155 µM) | 62.2 (≈ 155 µM) | 250 (≈ 623 µM) | 62.5 (≈ 156 µM) | 2 |  | 31.2 (≈ 77.8 µM) | 15.6 (≈ 38.9 µM) | 15.6 (≈ 38.9 µM) |  |  | 10.6 ± 0.31

— paper PMC10600881 (ACS Omega, 2023)
